In brackets after ≈: the same amount, converted by molar mass.
Columns and labels:
[1] = tested on: S6 Ribosomal Protein phosphorylation Ser235/236 in TSC1 null mouse embryo fibroblast (MEF) cells; assay: Reverse protein array assay, S6 Ribosomal Protein phosphorylation Ser235/236 in TSC1 null MEF cells; type: cell-based; conditions: 1 h, pS6 ribosomal protein Ser235/236, 60 minutes incubation, read-out: p-S6 IC50
Procedure, shortened: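 TSC1−/− MEFs, seeded and held ≥20 h at 37 °C/5% CO2, were exposed to 8-step serial compound dilutions (0.02% DMSO final; DMSO vehicle control) for 60 min at 37 °C. Cells were then lysed on ice for 10 min and lysates spotted onto reverse protein array chips.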

PI3K delta = biological target: T1, PI3K delta (Homo sapiens, UniProt O00329); assay: PI3K delta kinase assay (Kinase-Glo luminescence); type: biochemical
T1 construct: for the full-length p110-d subunit are generated and fused by overlapping PCR; p85(iSH2) fusion partner (see partner chain) (N); His tag (C); made in house; host or cells: baculovirus; Tn5 (Trichoplusia ni) or TiniPro insect cells
Procedure, shortened: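 ATP depletion was measured by Kinase-Glo luminescence after a 60-minute room-temperature reaction containing 1 μM ATP, 10 μg/mL PI and 10 nM His-tagged p85(iSH2)-linker-p110δ (BV-1060). Buffer: Tris pH 7.5, 3 mM MgCl2, 50 mM NaCl, 0.05% CHAPS, 1 mM DTT. IC50 values came from four-parameter fits over eight concentrations.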

PI3K alpha = biological target: T2, PI3K alpha (Homo sapiens, UniProt P42336); assay: PI3K alpha kinase assay (Kinase-Glo luminescence); type: biochemical
T2 construct: p85(iSH2) fusion partner (see partner chain) (N); His tag (C); made in house; host or cells: baculovirus; Tn5 (Trichoplusia ni) or TiniPro insect cells
Procedure, shortened: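 IC50 is taken from a four-parameter logistic fit of 8-point dilutions, with Kinase-Glo luminescence reporting residual ATP. Reactions ran 60 min at room temperature in TRIS pH 7.5 buffer with MgCl2, NaCl, CHAPS and DTT. Final levels were 10 nM enzyme, 1 μM ATP and 10 μg/mL PI.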

Solubility at pH 6.8 = type: physicochemical; conditions: pH 6.8, aqueous buffer, thermodynamic from solid; read-out: solubility
Procedure, shortened: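 Following the procedure of Zhou et al. (2007), compound solubility was determined at pH 6.8.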

PI3K beta = biological target: T3, PI3K beta (Homo sapiens, UniProt P42338); assay: PI3K beta kinase assay (Kinase-Glo luminescence); type: biochemical
T3 construct: for the full-length p110-b subunit are generated and fused by overlapping PCR; p85(iSH2) fusion partner (see partner chain) (N); His tag (C); made in house; host or cells: baculovirus; Tn5 (Trichoplusia ni) or TiniPro insect cells
Procedure, shortened: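 Residual ATP after a 60 min room-temperature reaction is quantified by Kinase-Glo luminescence. Enzyme: 25 nM BV-949 (p85 iSH2–linker–full-length p110β); substrates 1 μM ATP, 10 μg/mL PI; buffer Tris pH 7.5, MgCl2, NaCl, CHAPS, DTT. Eight concentrations per compound, four-parameter logistic IC50.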

T2 sequence (P42336 with tags, fused parts or gaps limits assumed): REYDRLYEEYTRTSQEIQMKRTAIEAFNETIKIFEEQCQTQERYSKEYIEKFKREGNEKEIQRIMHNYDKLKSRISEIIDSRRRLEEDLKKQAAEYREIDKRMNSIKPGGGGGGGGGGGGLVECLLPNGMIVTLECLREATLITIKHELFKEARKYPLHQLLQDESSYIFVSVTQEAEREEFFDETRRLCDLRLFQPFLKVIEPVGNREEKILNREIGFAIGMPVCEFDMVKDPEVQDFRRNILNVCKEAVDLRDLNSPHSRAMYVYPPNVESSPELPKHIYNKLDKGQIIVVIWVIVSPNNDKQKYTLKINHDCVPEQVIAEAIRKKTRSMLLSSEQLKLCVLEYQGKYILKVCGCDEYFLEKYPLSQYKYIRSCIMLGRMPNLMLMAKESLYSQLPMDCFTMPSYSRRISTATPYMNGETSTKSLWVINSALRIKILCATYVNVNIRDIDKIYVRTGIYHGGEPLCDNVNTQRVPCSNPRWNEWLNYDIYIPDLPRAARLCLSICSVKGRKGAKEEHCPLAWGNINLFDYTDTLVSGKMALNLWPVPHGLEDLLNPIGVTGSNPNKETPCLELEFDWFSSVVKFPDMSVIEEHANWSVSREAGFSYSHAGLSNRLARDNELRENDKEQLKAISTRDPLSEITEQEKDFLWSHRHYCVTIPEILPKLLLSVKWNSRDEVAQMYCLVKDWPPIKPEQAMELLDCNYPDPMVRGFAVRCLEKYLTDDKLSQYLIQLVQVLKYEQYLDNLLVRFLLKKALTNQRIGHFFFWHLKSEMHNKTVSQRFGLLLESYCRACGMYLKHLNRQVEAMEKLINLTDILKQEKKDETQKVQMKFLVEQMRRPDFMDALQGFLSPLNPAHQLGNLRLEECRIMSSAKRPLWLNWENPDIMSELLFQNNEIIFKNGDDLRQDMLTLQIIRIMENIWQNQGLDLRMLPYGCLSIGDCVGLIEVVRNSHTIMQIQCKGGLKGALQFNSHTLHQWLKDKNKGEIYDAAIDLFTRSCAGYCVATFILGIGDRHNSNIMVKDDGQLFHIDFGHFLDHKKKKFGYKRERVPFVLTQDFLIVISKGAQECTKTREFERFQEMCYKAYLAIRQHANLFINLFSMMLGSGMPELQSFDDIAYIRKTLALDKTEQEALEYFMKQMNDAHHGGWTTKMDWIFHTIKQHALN
T1 sequence (O00329 with tags, fused parts or gaps limits assumed): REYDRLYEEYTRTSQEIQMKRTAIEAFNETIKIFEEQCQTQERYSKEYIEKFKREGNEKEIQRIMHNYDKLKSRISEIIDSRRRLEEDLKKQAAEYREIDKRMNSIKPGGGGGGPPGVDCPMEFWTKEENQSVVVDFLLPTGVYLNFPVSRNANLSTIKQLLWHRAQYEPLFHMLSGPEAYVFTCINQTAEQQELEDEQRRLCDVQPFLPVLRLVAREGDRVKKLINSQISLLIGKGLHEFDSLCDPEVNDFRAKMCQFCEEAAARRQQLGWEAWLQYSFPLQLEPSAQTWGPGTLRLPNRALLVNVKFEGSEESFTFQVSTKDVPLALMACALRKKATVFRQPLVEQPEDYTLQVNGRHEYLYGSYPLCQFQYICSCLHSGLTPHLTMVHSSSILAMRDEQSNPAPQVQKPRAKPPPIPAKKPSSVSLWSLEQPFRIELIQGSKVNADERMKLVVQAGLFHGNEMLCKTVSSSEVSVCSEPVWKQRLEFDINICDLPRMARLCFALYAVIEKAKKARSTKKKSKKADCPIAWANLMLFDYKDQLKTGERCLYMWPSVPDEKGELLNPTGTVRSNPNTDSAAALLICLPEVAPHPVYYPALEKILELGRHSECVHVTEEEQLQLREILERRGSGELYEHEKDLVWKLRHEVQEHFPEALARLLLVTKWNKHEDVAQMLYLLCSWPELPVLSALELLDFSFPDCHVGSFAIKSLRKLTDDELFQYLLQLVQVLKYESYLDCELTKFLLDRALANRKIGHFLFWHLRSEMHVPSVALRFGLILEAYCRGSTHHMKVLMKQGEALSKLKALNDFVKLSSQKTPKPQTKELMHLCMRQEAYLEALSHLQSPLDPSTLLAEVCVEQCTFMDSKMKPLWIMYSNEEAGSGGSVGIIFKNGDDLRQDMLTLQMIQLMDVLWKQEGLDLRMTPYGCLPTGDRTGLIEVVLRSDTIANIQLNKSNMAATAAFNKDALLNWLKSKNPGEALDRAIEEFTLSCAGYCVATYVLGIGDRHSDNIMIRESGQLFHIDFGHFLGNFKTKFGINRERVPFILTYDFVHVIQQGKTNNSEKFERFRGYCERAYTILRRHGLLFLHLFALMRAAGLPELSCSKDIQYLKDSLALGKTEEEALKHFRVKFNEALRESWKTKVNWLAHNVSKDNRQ
T3 sequence (P42338 with tags, fused parts or gaps limits assumed): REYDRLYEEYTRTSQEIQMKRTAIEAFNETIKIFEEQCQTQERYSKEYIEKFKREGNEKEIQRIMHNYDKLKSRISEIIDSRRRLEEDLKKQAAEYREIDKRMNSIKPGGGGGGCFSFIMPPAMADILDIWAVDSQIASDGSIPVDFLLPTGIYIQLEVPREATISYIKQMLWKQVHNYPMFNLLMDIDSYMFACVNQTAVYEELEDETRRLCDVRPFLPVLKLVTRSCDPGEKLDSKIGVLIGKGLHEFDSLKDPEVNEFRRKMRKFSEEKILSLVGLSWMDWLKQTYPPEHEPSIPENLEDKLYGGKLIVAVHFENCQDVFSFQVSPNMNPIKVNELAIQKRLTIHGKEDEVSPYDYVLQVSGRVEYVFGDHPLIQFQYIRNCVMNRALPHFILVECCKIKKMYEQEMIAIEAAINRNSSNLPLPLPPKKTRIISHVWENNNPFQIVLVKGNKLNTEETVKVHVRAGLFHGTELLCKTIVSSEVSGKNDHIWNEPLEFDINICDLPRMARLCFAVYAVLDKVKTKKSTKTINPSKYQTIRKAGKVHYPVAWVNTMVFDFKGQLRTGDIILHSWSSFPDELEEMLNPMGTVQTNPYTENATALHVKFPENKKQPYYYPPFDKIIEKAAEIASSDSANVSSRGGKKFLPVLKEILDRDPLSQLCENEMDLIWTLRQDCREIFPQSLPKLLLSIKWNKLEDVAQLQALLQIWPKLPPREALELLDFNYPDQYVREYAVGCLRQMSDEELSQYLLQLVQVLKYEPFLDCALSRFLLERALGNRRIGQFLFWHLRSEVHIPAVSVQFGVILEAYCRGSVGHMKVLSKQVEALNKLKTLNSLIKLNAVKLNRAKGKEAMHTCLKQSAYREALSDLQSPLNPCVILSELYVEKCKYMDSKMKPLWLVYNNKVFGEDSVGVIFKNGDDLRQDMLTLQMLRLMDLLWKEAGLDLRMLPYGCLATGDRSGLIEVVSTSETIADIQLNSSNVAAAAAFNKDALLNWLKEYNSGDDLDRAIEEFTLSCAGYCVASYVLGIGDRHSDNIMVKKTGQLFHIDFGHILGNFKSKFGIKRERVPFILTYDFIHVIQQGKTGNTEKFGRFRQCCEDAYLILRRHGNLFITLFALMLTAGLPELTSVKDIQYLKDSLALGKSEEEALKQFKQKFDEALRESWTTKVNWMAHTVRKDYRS

## Cc1nn(CCO)cc1-n1c(=O)n(C)c2cnc3ccc(-c4cncc(N5CCOCC5)c4)cc3c21 [Example 175.3, 1-[1-(2-Hydroxy-ethyl)-3-methyl-1H-pyrazol-4-yl]-3-methyl-8-(5-morpholin-4-yl-pyridin-3-yl)-1,3-dihydro-imidazo[4,5-c]quinolin-2-one]
[1]
  IC50: 151 nM
PI3K delta
  IC50: 126 nM
PI3K alpha
  IC50: 44 nM
Solubility at pH 6.8
  solubility: > 486 µg/mL
PI3K beta
  IC50: 559 nM

## CCN(C)c1cncc(-c2ccc3ncc4c(c3c2)n(-c2cn(C)nc2C)c(=O)n4C)c1 [Example 176, 1-(1,3-Dimethyl-1H-pyrazol-4-yl)-8-[5-(ethyl-methyl-amino)-pyridin-3-yl]-3-methyl-1,3-dihydro-imidazo[4,5-c]quinolin-2-one]
[1]
  IC50: 2 nM
PI3K delta
  IC50: 15 nM
PI3K alpha
  IC50: 17 nM
Solubility at pH 6.8
  solubility: 59 µg/mL (≈ 138 µM)
PI3K beta
  IC50: 33 nM

## Cc1nn(C)cc1-n1c(=O)n(C)c2cnc3ccc(-c4cncc(OC(F)F)c4)cc3c21 [Example 183, 8-(5-Difluoromethoxy-pyridin-3-yl)-1-(1,3-dimethyl-1H-pyrazol-4-yl)-3-methyl-1,3-dihydro-imidazo[4,5-c]quinolin-2-one]
[1]
  IC50: 1 nM
PI3K delta
  IC50: 4 nM
PI3K alpha
  IC50: 3 nM
Solubility at pH 6.8
  solubility: 84 µg/mL (≈ 192 µM)
PI3K beta
  IC50: 4 nM

## COc1cc(-c2ccc3ncc4c(c3c2)n(-c2cn(C)nc2C)c(=O)n4C)cnc1C [Example 184, 1-(1,3-Dimethyl-1H-pyrazol-4-yl)-8-(5-methoxy-6-methyl-pyridin-3-yl)-3-methyl-1,3-dihydro-imidazo[4,5-c]quinolin-2-one]
[1]
  IC50: 5 nM
PI3K delta
  IC50: 4 nM
PI3K alpha
  IC50: 4 nM
Solubility at pH 6.8
  solubility: 8 µg/mL (≈ 19.3 µM)
PI3K beta
  IC50: 10 nM

## CCOc1cc(-c2ccc3ncc4c(c3c2)n(-c2cn(C)nc2C)c(=O)n4C)cnc1COC [Example 197.1, 1-(1,3-Dimethyl-1H-pyrazol-4-yl)-8-(5-ethoxy-6-methoxymethyl-pyridin-3-yl)-3-methyl-1,3-dihydro-imidazo[4,5-c]quinolin-2-one]
[1]
  IC50: 7 nM
PI3K delta
  IC50: 35 nM
PI3K alpha
  IC50: 34 nM
Solubility at pH 6.8
  solubility: 361 µg/mL (≈ 787 µM)
PI3K beta
  IC50: 468 nM

## Cc1nn(CC(=O)N2CCC2)cc1-n1c(=O)n(C)c2cnc3ccc(-c4cncc(OC(C)C)c4)cc3c21 [Example 205, 1-[1-(2-Azetidin-1-yl-2-oxo-ethyl)-3-methyl-1H-pyrazol-4-yl]-8-(5-isopropoxy-pyridin-3-yl)-3-methyl-1,3-dihydro-imidazo[4,5-c]quinolin-2-one]
[1]
  IC50: 37 nM
PI3K delta
  IC50: 12 nM
PI3K alpha
  IC50: 5 nM
Solubility at pH 6.8
  solubility: > 512 µg/mL
PI3K beta
  IC50: 17 nM

## Cc1nn(C)cc1-n1c(=O)[nH]c2cnc3ccc(-c4cnc(N(C)C)nc4)cc3c21 [Example 207, 8-(2-Dimethylamino-pyrimidin-5-yl)-1-(1,3-dimethyl-1H-pyrazol-4-yl)-1,3-dihydro-imidazo[4,5-c]quinolin-2-one]
[1]
  IC50: 22 nM
PI3K delta
  IC50: 29 nM
PI3K alpha
  IC50: 14 nM
Solubility at pH 6.8
  solubility: 18 µg/mL (≈ 44.9 µM)
PI3K beta
  IC50: 167 nM

## CCNc1cc(-c2ccc3ncc4c(c3c2)n(-c2c(C)nn(CCO)c2C)c(=O)n4C)cnc1C [Example 210, 8-(5-Ethylamino-6-methyl-pyridin-3-yl)-1-[1-(2-hydroxy-ethyl)-3,5-dimethyl-1H-pyrazol-4-yl]-3-methyl-1,3-dihydro-imidazo[4,5-c]quinolin-2-one]
[1]
  IC50: 32 nM
PI3K delta
  IC50: 13 nM
PI3K alpha
  IC50: 24 nM
Solubility at pH 6.8
  solubility: 445 µg/mL (≈ 944 µM)
PI3K beta
  IC50: 49 nM

## CCOc1cc(-c2ccc3ncc4c(c3c2)n(-c2cn(CCO)nc2C)c(=O)n4C)cnc1C [Example 211.2, 8-(5-Ethoxy-6-methyl-pyridin-3-yl)-1-[1-(2-hydroxy-ethyl)-3-methyl-1H-pyrazol-4-yl]-3-methyl-1,3-dihydro-imidazo[4,5-c]quinolin-2-one]
[1]
  IC50: 11 nM
PI3K delta
  IC50: 9 nM
PI3K alpha
  IC50: 6 nM
Solubility at pH 6.8
  solubility: 3 µg/mL (≈ 6.54 µM)
PI3K beta
  IC50: 17 nM

## Cc1nn(C(C)C)cc1-n1c(=O)n(C)c2cnc3ccc(-c4cncc(C(C)(C)O)c4)cc3c21 [Example 215.1, 8-[5-(1-Hydroxy-1-methyl-ethyl)-pyridin-3-yl]-1-(1-isopropyl-3-methyl-1H-pyrazol-4-yl)-3-methyl-1,3-dihydro-imidazo[4,5-c]quinolin-2-one]
[1]
  IC50: 39 nM
PI3K delta
  IC50: 14 nM
PI3K alpha
  IC50: 12 nM
Solubility at pH 6.8
  solubility: > 457 µg/mL
PI3K beta
  IC50: 40 nM

## CCn1cc(-n2c(=O)n(C)c3cnc4ccc(-c5cncc(C(C)(C)O)c5)cc4c32)c(C)n1 [Example 215.4, 1-(1-Ethyl-3-methyl-1H-pyrazol-4-yl)-8-[5-(1-hydroxy-1-methyl-ethyl)-pyridin-3-yl]-3-methyl-1,3-dihydro-imidazo[4,5-c]quinolin-2-one]
[1]
  IC50: < 0.5 nM
PI3K delta
  IC50: 10 nM
PI3K alpha
  IC50: 6 nM
Solubility at pH 6.8
  solubility: > 443 µg/mL
PI3K beta
  IC50: 12 nM

## CNC(=O)c1cc(-c2ccc3ncc4c(c3c2)n(-c2cn(C)nc2C)c(=O)n4C)cnc1N [Example 224.1, 2-Amino-5-[1-(1,3-dimethyl-1H-pyrazol-4-yl)-3-methyl-2-oxo-2,3-dihydro-1H-imidazo[4,5-c]quinolin-8-yl]-N-methyl-nicotinamide]
[1]
  IC50: 3 nM
PI3K delta
  IC50: 29 nM
PI3K alpha
  IC50: 15 nM
Solubility at pH 6.8
  solubility: 5 µg/mL (≈ 11.3 µM)
PI3K beta
  IC50: 62 nM

## Cc1nn(C)cc1-n1c(=O)n(C)c2cnc3ccc(-c4cnc5c(c4)C(C)(C)C(=O)N5C)cc3c21 [Example 233, 1-(1,3-Dimethyl-1H-pyrazol-4-yl)-3-methyl-8-(1,3,3-trimethyl-2-oxo-2,3-dihydro-1H-pyrrolo[2,3-b]pyridin-5-yl)-1,3-dihydro-imidazo[4,5-c]quinolin-2-one]
[1]
  IC50: 3 nM
PI3K delta
  IC50: 15 nM
PI3K alpha
  IC50: 22 nM
Solubility at pH 6.8
  solubility: 11 µg/mL (≈ 23.5 µM)
PI3K beta
  IC50: 39 nM

## CCn1cc(-n2c(=O)n(C)c3cnc4ccc(-c5cnc(OC)nc5OC)cc4c32)c(C)n1 [Example 234.1, 8-(2,4-Dimethoxy-pyrimidin-5-yl)-1-(1-ethyl-3-methyl-1H-pyrazol-4-yl)-3-methyl-1,3-dihydro-imidazo[4,5-c]quinolin-2-one]
[1]
  IC50: 9 nM
PI3K delta
  IC50: 9 nM
PI3K alpha
  IC50: 20 nM
Solubility at pH 6.8
  solubility: 58 µg/mL (≈ 130 µM)
PI3K beta
  IC50: 119 nM

## COC(C)(C)c1cncc(-c2ccc3ncc4c(c3c2)n(-c2cn(C)nc2C)c(=O)n4C)c1 [Example 239, 1-(1,3-Dimethyl-1H-pyrazol-4-yl)-8-[5-(1-methoxy-1-methyl-ethyl)-pyridin-3-yl]-3-methyl-1,3-dihydro-imidazo[4,5-c]quinolin-2-one]
[1]
  IC50: 1 nM
PI3K delta
  IC50: 3 nM
PI3K alpha
  IC50: 10 nM
Solubility at pH 6.8
  solubility: 125 µg/mL (≈ 282 µM)
PI3K beta
  IC50: 13 nM

## CCNC(=O)c1cc(-c2ccc3ncc4c(c3c2)n(-c2cn(C)nc2C)c(=O)n4C)cnc1NC [Example 242.1, 5-[1-(1,3-Dimethyl-1H-pyrazol-4-yl)-3-methyl-2-oxo-2,3-dihydro-1H-imidazo[4,5-c]quinolin-8-yl]-N-ethyl-2-methylamino-nicotinamide]
[1]
  IC50: 2 nM
PI3K delta
  IC50: 10 nM
PI3K alpha
  IC50: 23 nM
Solubility at pH 6.8
  solubility: 5 µg/mL (≈ 10.6 µM)
PI3K beta
  IC50: 67 nM

## CCOc1cc(-c2ccc3ncc4c(c3c2)n(-c2cn(C)nc2C)c(=O)n4C)cnc1CO [Example 243, 1-(1,3-Dimethyl-1H-pyrazol-4-yl)-8-(5-ethoxy-6-hydroxymethyl-pyridin-3-yl)-3-methyl-1,3-dihydro-imidazo[4,5-c]quinolin-2-one]
[1]
  IC50: 4 nM
PI3K delta
  IC50: 7 nM
PI3K alpha
  IC50: 11 nM
Solubility at pH 6.8
  solubility: 43 µg/mL (≈ 96.7 µM)
PI3K beta
  IC50: 47 nM

From patent US20140005163A1 (NOVARTIS AG, priority 2010, published 2014)
